Type in all cases: cell-based
What all share (conditions): compound alone

In one test the test system is E.coli 7920. Description: Preliminary bacteriological tests, MIC, E.coli 7920.
A further test relates to E.coli 8141. The test is described as follows: Preliminary bacteriological tests, MIC, E.coli 8141.
Another test relates to Strept.haem. The test is described as follows: Preliminary bacteriological tests, MIC, Strept.haem.

Values after ≈ are worked out from the molar mass of the structure shown.

Data on four compounds can be found in patent publication US3939144A, “Manufacture of N-(benzenesulfonyl)-5-O-desosaminyl-erythromycilamine derivatives” (Pliva, Pharmaceutical and Chemical Works, priority 1974, dated 1976).

Take `CCC1OC(=O)C(C)C(O)C(C)C(OC2OC(C)CC(N(C)C)C2O)C(C)(O)CC(C)C(NS(=O)(=O)c2ccc(Br)cc2)C(C)C(O)C1(C)O` (stereo not drawn) [DEASBr, N-(4-bromo-benzenesulfonyl)-5 -O-desosaminyl-erythromycilamine]: the values for the MIC against E.coli 7920, against E.coli 8141 and with Strept.haem. were 250 µg/mL (≈ 314 µM), 500 µg/mL (≈ 628 µM) and 62.2 µg/mL (≈ 78.2 µM), respectively.
For `CCC1OC(=O)C(C)C(O)C(C)C(OC2OC(C)CC(N(C)C)C2O)C(C)(O)CC(C)C(NS(=O)(=O)c2ccc(Cl)cc2)C(C)C(O)C1(C)O` (stereo not drawn) [DEASCl, N-(4-chloro-benzenesulfonyl)-5 -O-desosaminyl-erythromycilamine], the MIC with E.coli 7920 amounted to 250 µg/mL (≈ 333 µM); in the test with E.coli 8141 it was 250 µg/mL (≈ 333 µM); against Strept.haem., 125 µg/mL (≈ 166 µM).
`CCC1OC(=O)C(C)C(O)C(C)C(OC2OC(C)CC(N(C)C)C2O)C(C)(O)CC(C)C(NS(=O)(=O)c2ccc(N)cc2)C(C)C(O)C1(C)O` (stereo not drawn) [DEASNH2, N-(4-amino-benzenesulfonyl)-5-0-desosaminyl-erythromycilamine]: the values for the MIC in the test on E.coli 7920, with E.coli 8141 and in the test with Strept.haem. were 125 µg/mL (≈ 171 µM), 125 µg/mL (≈ 171 µM) and 62.2 µg/mL (≈ 85 µM), respectively.
On to `CCC1OC(=O)C(C)C(O)C(C)C(OC2OC(C)CC(N(C)C)C2O)C(C)(O)CC(C)C(NS(=O)(=O)c2ccc(C)cc2)C(C)C(O)C1(C)O` (stereo not drawn) [DEAST, N-(4-methyl-benzenesulfonyl)-5 -O-desosaminyl-erythromycilamine], for which the MIC came out at 125 µg/mL (≈ 171 µM) in the test on E.coli 7920, 125 µg/mL (≈ 171 µM) in the test on E.coli 8141 and 62.2 µg/mL (≈ 85.1 µM) in the test with Strept.haem..
